Data published in PubChem BioAssay AID1963871 (Molecular Pharmacology Branch, DTP, NCI, 2024).
pIC50: −log10 of the molar value.

Test system: KRAS-mutant PDC multicell tumor spheroid viability
Assay: Anticancer human tumor 521955-158-R2-J5-PDC patient-derived pancreatic carcinoma cell line growth inhibition [KRAS2]
Details: for pIC50: curve of first compound; for viability, T/C: stronger effect = lower value
In short: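 KRAS-mutant tumor cells were grown as spheroids with HUVEC endothelial cells and human MSCs as stroma. Targeted agents were tested alone and with KRAS pathway inhibitors. Doses started at or near clinical Cmax, or 10 microM, descending half-log.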

[1] = second compound 0.0316 µM, first compound 0.0316 µM
[2] = second compound 0.0316 µM, first compound 0.1 µM
[3] = second compound 0.0316 µM, first compound 0.316 µM
[4] = second compound 0.0316 µM, first compound 1 µM
[5] = second compound 0.0316 µM, first compound 3.16 µM
[6] = second compound 0.1 µM, first compound 0.0316 µM
[7] = second compound 0.1 µM, first compound 0.1 µM
[8] = second compound 0.1 µM, first compound 0.316 µM
[9] = second compound 0.1 µM, first compound 1 µM
[10] = second compound 0.1 µM, first compound 3.16 µM
[11] = second compound 0.316 µM, first compound 0.0316 µM
[12] = second compound 0.316 µM, first compound 0.1 µM
[13] = second compound 0.316 µM, first compound 0.316 µM
[14] = second compound 0.316 µM, first compound 1 µM
[15] = second compound 0.316 µM, first compound 3.16 µM
[16] = second compound 1 µM, first compound 0.0316 µM
[17] = second compound 1 µM, first compound 0.1 µM
[18] = second compound 1 µM, first compound 0.316 µM
[19] = second compound 1 µM, first compound 1 µM
[20] = second compound 1 µM, first compound 3.16 µM
[21] = second compound 3.16 µM, first compound 0.0316 µM
[22] = second compound 3.16 µM, first compound 0.1 µM
[23] = second compound 3.16 µM, first compound 0.316 µM
[24] = second compound 3.16 µM, first compound 1 µM
[25] = second compound 3.16 µM, first compound 3.16 µM
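Also: viability read after seven days of drug exposure.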

Structure (SMILES): CC1COCCN1c1cc(-c2ccnn2C)c2ccnc(-c3ccn[nH]3)c2n1 (stereo not given) + C=CC(=O)N1CCN(c2nc(OCC3CCCN3C)nc3c2CCN(c2cccc4cccc(C)c24)C3)CC1CC#N
- pIC50 (second compound 0.0316 µM): 7.51
- pIC50 (second compound 0.1 µM): 7.53
- pIC50 (second compound 0.316 µM): 7.64
- pIC50 (second compound 1 µM): 7.77
- pIC50 (second compound 3.16 µM): > 8.00
- viability, T/C (second compound 0.0316 µM, first compound 0.01 µM): 95.8%
- viability, T/C [1]: 48.6%
- viability, T/C [2]: 10.9%
- viability, T/C [3]: 13.4%
- viability, T/C [4]: 21.8%
- viability, T/C [5]: 27.5%
- viability, T/C (second compound 0.1 µM, first compound 0.01 µM): 109%
- viability, T/C [6]: 46.4%
- viability, T/C [7]: 9.45%
- viability, T/C [8]: 13.1%
- viability, T/C [9]: 21.9%
- viability, T/C [10]: 26.9%
- viability, T/C (second compound 0.316 µM, first compound 0.01 µM): 96%
- viability, T/C [11]: 32%
- viability, T/C [12]: 7.93%
- viability, T/C [13]: 11.4%
- viability, T/C [14]: 19.9%
- viability, T/C [15]: 27.3%
- viability, T/C (second compound 1 µM, first compound 0.01 µM): 77.8%
- viability, T/C [16]: 17.8%
- viability, T/C [17]: 5.2%
- viability, T/C [18]: 9.79%
- viability, T/C [19]: 17.1%
- viability, T/C [20]: 21.1%
- viability, T/C (second compound 3.16 µM, first compound 0.01 µM): 10.7%
- viability, T/C [21]: 6.36%
- viability, T/C [22]: 4.26%
- viability, T/C [23]: 6.86%
- viability, T/C [24]: 11%
- viability, T/C [25]: 15.3%

Structure (SMILES): Cn1nccc1Nc1nccc(-c2cc3c(s2)C(C)(C)N(CCN2CCOCC2)C3=O)n1 + C=CC(=O)N1CCN(c2nc(OCC3CCCN3C)nc3c2CCN(c2cccc4cccc(C)c24)C3)CC1CC#N
- pIC50 (second compound 0.0316 µM): 6.18
- pIC50 (second compound 0.1 µM): 6.26
- pIC50 (second compound 0.316 µM): 6.34
- pIC50 (second compound 1 µM): 6.77
- pIC50 (second compound 3.16 µM): > 7.50
- viability, T/C [1]: 100%
- viability, T/C [2]: 95.3%
- viability, T/C [3]: 64.3%
- viability, T/C [4]: 40.6%
- viability, T/C [5]: 29.7%
- viability, T/C (second compound 0.0316 µM, first compound 10 µM): 19.1%
- viability, T/C [6]: 98.2%
- viability, T/C [7]: 76.6%
- viability, T/C [8]: 57.1%
- viability, T/C [9]: 44.5%
- viability, T/C [10]: 23.8%
- viability, T/C (second compound 0.1 µM, first compound 10 µM): 17.1%
- viability, T/C [11]: 78.4%
- viability, T/C [12]: 81%
- viability, T/C [13]: 48.3%
- viability, T/C [14]: 41.9%
- viability, T/C [15]: 22.1%
- viability, T/C (second compound 0.316 µM, first compound 10 µM): 16.8%
- viability, T/C [16]: 75.5%
- viability, T/C [17]: 52.1%
- viability, T/C [18]: 41.6%
- viability, T/C [19]: 38%
- viability, T/C [20]: 23.3%
- viability, T/C (second compound 1 µM, first compound 10 µM): 17.9%
- viability, T/C [21]: 11.5%
- viability, T/C [22]: 10.4%
- viability, T/C [23]: 6.73%
- viability, T/C [24]: 1.86%
- viability, T/C [25]: 0.55%
- viability, T/C (second compound 3.16 µM, first compound 10 µM): 0.33%
